Assay results reported in patent publication US20210179686A1, “CELL SORTING SYSTEMS AND METHODS OF USE” (MEMORIAL SLOAN-KETTERING CANCER CENTER, priority 2018, published 2021).

Tests used:
FLAG-RR12EE345L = assay: capture and presentation of secreted FLAG leucine zipper by mutant blocking leucine zippers in C1498 cells; format: cell-based; settings: FIG. 20
Text: A series of mutations were made in the “g” residues of the blocking leucine zipper to reduce heterodimerization affinity between the capture leucine zipper and the linked blocking leucine zipper. The following six mutants were made: 1N mutant: E1R2EE345L (having the amino acid sequence set forth in SEQ ID NO: 98), 1M mutant: RR123E45L (having the amino acid sequence set forth in SEQ ID NO: 99), 2N mutant: EE12345L (having the amino acid sequence set forth in SEQ ID NO: 102), 2M mutant: RR1234E5L (having the amino acid sequence set forth in SEQ ID NO: 103), 3N mutant: EE12R3E45L (having the amino acid sequence set forth in SEQ ID NO: 106), and 3C mutant: RR12345L (having the amino acid sequence set forth in SEQ ID NO: 107).
C1498 cells were co-transduced with the FLAG-RR12EE345L GFP vector and one of the six mutants as part of RR12EE345L linker EE12RR345L BFP vector constructs. […] Thus, mutating the […] leucine zipper at “g” position residues to include repulsive amino acid interactions can reduce the degree of blocking by the linked […]-based mutant leucine zipper.

iCaspase 9 = target: T1, iCaspase 9 (Homo sapiens, UniProt P55211, Q221R); assay: activation of iCaspase 9 suicide gene by chemical inducer of dimerization in sorted dual-transduced T cells; format: cell-based, mouse
T1 construct: […]; expressed in transfected cells
T1 sequence (P55211 with tags, fused parts or gaps Q221R): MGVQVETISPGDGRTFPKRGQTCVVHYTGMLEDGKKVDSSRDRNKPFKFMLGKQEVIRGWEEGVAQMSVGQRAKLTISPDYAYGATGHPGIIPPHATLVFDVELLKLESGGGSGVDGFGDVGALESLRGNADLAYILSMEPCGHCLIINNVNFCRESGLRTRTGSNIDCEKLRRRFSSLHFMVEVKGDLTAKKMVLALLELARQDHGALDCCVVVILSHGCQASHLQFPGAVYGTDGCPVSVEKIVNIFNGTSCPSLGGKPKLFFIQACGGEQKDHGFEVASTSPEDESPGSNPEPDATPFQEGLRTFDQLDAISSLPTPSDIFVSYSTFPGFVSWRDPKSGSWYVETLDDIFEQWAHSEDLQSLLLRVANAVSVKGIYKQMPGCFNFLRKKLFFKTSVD
Method: FIG. 5 depicts purification and testing of dual-transduced cells with iCaspase 9 and CD20-CAR. T cells comprising RR12EE345L-FLAG iCaspase 9 (vector 1) and RR12EE345L-linker-EE12RR345L-Thy1.1 CD20-CAR (vector 2) were incubated with EL4-CD19 and EL4-CD20 targets in the presence or absence of chemical inducer of dimerization (CID).
IL-18 secretion was assessed by ELISA. Interferon gamma secretion was assessed by cytometric bead array.

CD20 mimotope = assay: antibody plus complement depletion of double transduced C1498 cells; format: cell-based; settings: RQR-RR12EE345L plus capture leucine zipper, in the presence of complement, FIG. 18
Chain of CD20 mimotope (as listed by the source): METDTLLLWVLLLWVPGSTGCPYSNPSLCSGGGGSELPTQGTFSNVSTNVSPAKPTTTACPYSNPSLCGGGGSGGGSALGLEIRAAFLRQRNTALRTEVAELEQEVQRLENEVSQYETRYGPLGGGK
Method: Next, C1498 cells were double transduced with capture leucine zippers as shown in FIG. 18 and a second vector encoding the tandem CD20 mimotope/CD34 leucine zipper tag (RQR-RR12EE345L). Subsequently, the cells were incubated with anti-CD20 antibody Rituximab or irrelevant antibody Cetuximab in the presence of complement.

Chain of FLAG-RR12EE345L (as listed by the source): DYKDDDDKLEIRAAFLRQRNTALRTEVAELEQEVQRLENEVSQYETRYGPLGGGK

Compound: 3N mutant: blocking leucine zipper mutant, amino acid sequence SEQ ID NO: 106 (LEIEAAFLRQENTALRTRVAELEQEVQRLENEVSQYETRYGPLGGGK)
- presentation of secreted leucine zipper (FLAG-RR12EE345L; C1498 cells co-transduced with FLAG-RR12EE345L GFP vector): enhanced presentation of secreted leucine zipper
- FLAG binding (FLAG-RR12EE345L; double transduced and single-transduced capture-zipper-only C1498 cells): increased FLAG binding in double transduced cells (intracellular pairing), but also in single-transduced capture leucine zipper-only cells (extracellular pairing)

Compound: CC[C@H](C(=O)N1CCCC[C@H]1C(=O)O[C@H](CCc1ccc(OC)c(OC)c1)c1cccc(OCC(=O)NCC(CNC(=O)COc2cccc([C@@H](CCc3ccc(OC)c(OC)c3)OC(=O)[C@@H]3CCCCN3C(=O)[C@@H](CC)c3cc(OC)c(OC)c(OC)c3)c2)CN(C)C)c1)c1cc(OC)c(OC)c(OC)c1 [chemical inducer of dimerization]
- induction of T cell apoptosis (iCaspase 9; T cells with iCaspase 9 on one vector and CD20-CAR on the other, FIG. 5): > 90%
- cell death (iCaspase 9; sorted cells with two vectors expressing CD19-CAR, CD20-CAR and iCaspase9, optionally IL-18, FIG. 6): about 90%

Compound: Rituximab
- depletion of cells (CD20 mimotope): selective depletion of double transduced cells
